# Patent publication US9775831B2, “Combinations comprising biphenyl derivatives for use in the treatment of HCV” (BRISTOL-MYERS SQUIBB COMPANY, priority 2013, dated 2017)
# Read-outs that look alike come from different tables or passages of the source.
# Key:
# [1] = system: genotype-1a variant with glutamine 30 changed to glutamate in the NS5A protein; conditions: cited from earlier work
# [2] = system: genotype-1a variant with glutamine 30 changed to glutamate in the NS5A protein; assay: HCV replicon cell-based assay, NS5A synergy with BMS-790052; conditions: genotype 1a Q→E variant; test compound titrated in combination with NS5A-targeting compound (BMS-790052 fixed at 200 nM)
# Excerpt: The NS5A synergistic inhibitory effect of test compounds can be determined using various amounts of an NS5A-targeting compound with titration of a second compound of interest. […] In one embodiment, the HCV genotype strain can be genotype 1a containing a change at amino acid 30 of the NS5A protein consisting of glutamine to glutamate. The test compound can be chosen from compounds listed above or from others present in the literature.
# [3] = genotype-1a Q30E NS5A variant replicon, compound alone, read-out: EC50, titrated singly
structure (smiles),measurement,setting,value
COC(=O)N[C@H](C(=O)N1CCC[C@H]1c1nc(-c2ccc(-c3ccc(-c4c[nH]c([C@@H]5CCCN5C(=O)[C@@H](NC(=O)OC)C(C)C)n4)cc3)cc2)c[nH]1)C(C)C [BMS-790052],reciprocal synergistic inhibitory effect for the combination,"[1]; BMS-790052 titrated with P-55 fixed at 200 nM, genotype-1a Q30E variant",~100 fold
same,EC50,[1]; [3],~200 nM
same,EC50,"[1]; genotype-1a Q30E variant, P-55 fixed at 200 nM, read-out: EC50 of BMS-790052 in the presence of a fixed amount of P-55",~2 nM
CC(C)CC(=O)N[C@H](c1ncc(-c2ccc(-c3ccc(-c4cnc([C@@H](NC(=O)CC(C)C)C(C)C)[nH]4)cc3)cc2)[nH]1)C(C)C [Example P-55],synergistic inhibitory effect for the combination,"[1]; P-55 titrated with BMS-790052 fixed at 200 nM, genotype-1a Q30E variant",> 100 fold
same,EC50,[1]; [3],> 200 nM
same,EC50,"[1]; genotype-1a Q30E variant, BMS-790052 fixed at 200 nM, read-out: EC50 of P-55 in the presence of a fixed amount of BMS-790052",~2 nM
CC(C)CNC(=O)C[C@@H](C)c1nc(-c2ccc(-c3ccc(-c4c[nH]c([C@H](C)CC(=O)NCC(C)C)n4)cc3)cc2)c[nH]1 [Example MD-11],Fold Synergistic (1a-QE),[2],>100 Fold
CC(C)(C)CNC(=O)C[C@@H](CCC(F)(F)F)c1ncc(-c2ccc(-c3ccc(-c4cnc([C@H](CCC(F)(F)F)CC(=O)NCC(C)(C)C)[nH]4)cc3)cc2)[nH]1 [Example MD-55],Fold Synergistic (1a-QE),[2],<10 Fold
CC(C)[C@H](CC(=O)N(C)C1CCOCC1)c1ncc(-c2ccc(-c3ccc(-c4cnc([C@@H](CC(=O)N(C)C5CCOCC5)C(C)C)[nH]4)cc3)cc2)[nH]1 [MD-50],Fold Synergistic (1a-QE),[2],<10 Fold
CC1(C)O[C@@H](C(N)=O)[C@H](c2ncc(-c3ccc(-c4ccc(-c5coc([C@@H]6OC(C)(C)O[C@H]6C(N)=O)n5)cc4)cc3)[nH]2)O1 [MD-10],Fold Synergistic (1a-QE),[2],<10 Fold
CC(C)[C@H](CC(=O)NCC(C)(C)C)c1ncc(-c2ccc(-c3ccc(-c4cnc([C@@H](CC(=O)NCC(C)(C)C)C(C)C)[nH]4)cc3)cc2)[nH]1 [Example MD-18],Fold Synergistic (1a-QE),[2],>10 Fold
CCOC(=O)[C@@H]1OCO[C@H]1c1ncc(-c2ccc(-c3ccc(-c4cnc([C@@H]5OCO[C@H]5C(=O)OCC)[nH]4)cc3)cc2)[nH]1 [Example MD-15],Fold Synergistic (1a-QE),[2],<10 Fold
CC(C)[C@H](CC(=O)N1CCN(c2ccccc2)C(=O)C1)c1ncc(-c2ccc(-c3ccc(-c4cnc([C@@H](CC(=O)N5CCN(c6ccccc6)C(=O)C5)C(C)C)[nH]4)cc3)cc2)[nH]1 [MD-29],Fold Synergistic (1a-QE),[2],<10 Fold
CCO[C@H](CC(=O)NCC(C)C)c1nc(-c2ccc(-c3ccc(-c4c[nH]c([C@@H](CC(=O)NCC(C)C)OCC)n4)cc3)cc2)c[nH]1 [Example MD-6],Fold Synergistic (1a-QE),[2],>10 Fold
COC(=O)NN(C(=O)C[C@@H](C)c1nc(-c2ccc(-c3ccc(-c4c[nH]c([C@H](C)CC(=O)N(NC(=O)OC)C(C)C)n4)cc3)cc2)c[nH]1)C(C)C [MD-12],Fold Synergistic (1a-QE),[2],>10 Fold
CCOC(=O)N1CCN(C(=O)C[C@@H](CCC(F)(F)F)c2ncc(-c3ccc(-c4ccc(-c5cnc([C@H](CCC(F)(F)F)CC(=O)N6CCN(C(=O)OCC)CC6)[nH]5)cc4)cc3)[nH]2)CC1 [MD-58],Fold Synergistic (1a-QE),[2],>10 Fold
CCN(CC)C(=O)CN(C)C(=O)C[C@H](c1ncc(-c2ccc(-c3ccc(-c4cnc([C@@H](CC(=O)N(C)CC(=O)N(CC)CC)C(C)C)[nH]4)cc3)cc2)[nH]1)C(C)C [MD-24],Fold Synergistic (1a-QE),[2],>10 Fold
CC(C)[C@H](CC(=O)NCC1(c2ccc(F)cc2)CCCC1)c1ncc(-c2ccc(-c3ccc(-c4cnc([C@@H](CC(=O)NCC5(c6ccc(F)cc6)CCCC5)C(C)C)[nH]4)cc3)cc2)[nH]1 [MD-32],Fold Synergistic (1a-QE),[2],>100 Fold
CCO[C@H](CC(=O)N(NC(=O)OC)C(C)C)c1ncc(-c2ccc(-c3ccc(-c4cnc([C@@H](CC(=O)N(NC(=O)OC)C(C)C)OCC)[nH]4)cc3)cc2)[nH]1 [Example MD-5],Fold Synergistic (1a-QE),[2],>10 Fold
CC(C)[C@H](CC(=O)NCC(C)(C)O)c1ncc(-c2ccc(-c3ccc(-c4cnc([C@@H](CC(=O)NCC(C)(C)O)C(C)C)[nH]4)cc3)cc2)[nH]1 [Example MD-41],Fold Synergistic (1a-QE),[2],>10 Fold
O=C(C[C@@H](CCC(F)(F)F)c1ncc(-c2ccc(-c3ccc(-c4cnc([C@H](CCC(F)(F)F)CC(=O)N5CCC(F)CC5)[nH]4)cc3)cc2)[nH]1)N1CCC(F)CC1 [Example MD-2],Fold Synergistic (1a-QE),[2],>100 Fold
CC(C)(C)NC(=O)C(c1ncc(-c2ccc(-c3ccc(-c4cnc(C(C(=O)NC(C)(C)C)C(C)(C)C)[nH]4)cc3)cc2)[nH]1)C(C)(C)C (stereo not shown) [Example B1],Fold Synergistic (1a-QE),[2],>100 Fold
